Source: patent US20230017045A1, “PYRIDINE AND PYRIMIDINE CARBOXYLATE HERBICIDES AND METHODS OF USE THEREOF” (Dow AgroSciences LLC, priority 2017, published 2023)
Read-outs that look alike come from different tables or passages of the source.

Tested on: test plant species
Test: Post-emergent herbicidal activity test (greenhouse, foliar spray, visual growth reduction)
Format: in vivo
Conditions: 140 g ai/ha; for pest or weed control at 140 g/ha: post-emergence, 336 h
Summary of the method: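 Scoring used a 0 to 100 percent visual scale of growth reduction against solvent-treated controls, read 14 d after spraying. Applications went onto plants at first or second true leaf stage, 187 L/ha, with crop oil concentrate and X-77 surfactant in the carrier. Post-treatment watering was by subirrigation to avoid wash-off.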

[1] = ECHCG: barnyardgrass (Echinochloa crus-galli), 14 days after application, read-out: Visual Growth Reduction (%) 14 Days After Application, ECHCG
[2] = IPOHE: ivy-leaf morning glory (Ipomoea hederacea), 14 days after application, read-out: Visual Growth Reduction (%) 14 Days After Application, IPOHE
[3] = KCHSC: kochia (Bassia scoparia), 14 days after application, read-out: Visual Growth Reduction (%) 14 Days After Application, KCHSC
[4] = ORYSA: rice (Oryza sativa), 14 days after application, read-out: Visual Growth Reduction (%) 14 Days After Application, ORYSA
[5] = SETFA: giant foxtail (Setaria faberi), 14 days after application, read-out: Visual Growth Reduction (%) 14 Days After Application, SETFA
[6] = SORVU: grain sorghum (Sorghum vulgare), 14 days after application, read-out: Visual Growth Reduction (%) 14 Days After Application, SORVU
[7] = STEME: common chickweed (Stellaria media), 14 days after application, read-out: Visual Growth Reduction (%) 14 Days After Application, STEME
[8] = TRZAS: wheat, spring (Triticum aestivum), 14 days after application, read-out: Visual Growth Reduction (%) 14 Days After Application, TRZAS
[9] = blackgrass (Alopecurus myosuroides), 14 Days After Application, read-out: Visual Growth Reduction (%) ALOMY
[10] = canada thistle (Cirsium arvense), 14 Days After Application, read-out: Visual Growth Reduction (%) CIRAR
[11] = crabgrass (Digitaria sanguinalis), 14 Days After Application, read-out: Visual Growth Reduction (%) DIGSA
[12] = lambsquarters (Chenopodium album), 14 Days After Application, read-out: Visual Growth Reduction (%) CHEAL
[13] = redroot pigweed (Amaranthus retroflexus), 14 Days After Application, read-out: Visual Growth Reduction (%) AMARE
[14] = wild oat (Avena fatua), 14 Days After Application, read-out: Visual Growth Reduction (%) AVEFA
[15] = yellow nutsedge (Cyperus esculentus), 14 Days After Application, read-out: Visual Growth Reduction (%) CYPES
[16] = ALOMY: blackgrass (Alopecurus myosuroides), 14 days after application, read-out: Visual Growth Reduction (%) 14 Days After Application, ALOMY
[17] = AMARE: redroot pigweed (Amaranthus retroflexus), 14 days after application, read-out: Visual Growth Reduction (%) 14 Days After Application, AMARE
[18] = AVEFA: wild oat (Avena fatua), 14 days after application, read-out: Visual Growth Reduction (%) 14 Days After Application, AVEFA
[19] = CHEAL: lambsquarters (Chenopodium album), 14 days after application, read-out: Visual Growth Reduction (%) 14 Days After Application, CHEAL
[20] = CIRAR: canada thistle (Cirsium arvense), 14 days after application, read-out: Visual Growth Reduction (%) 14 Days After Application, CIRAR
[21] = CYPES: yellow nutsedge (Cyperus esculentus), 14 days after application, read-out: Visual Growth Reduction (%) 14 Days After Application, CYPES
[22] = DIGSA: crabgrass (Digitaria sanguinalis), 14 days after application, read-out: Visual Growth Reduction (%) 14 Days After Application, DIGSA

SMILES	pest or weed control at 140 g/ha [1] [%]	pest or weed control at 140 g/ha [2] [%]	pest or weed control at 140 g/ha [3] [%]	pest or weed control at 140 g/ha [4] [%]	pest or weed control at 140 g/ha [5] [%]	pest or weed control at 140 g/ha [6] [%]	pest or weed control at 140 g/ha [7] [%]	pest or weed control at 140 g/ha [8] [%]	pest or weed control at 140 g/ha [9] [%]	pest or weed control at 140 g/ha [10] [%]	pest or weed control at 140 g/ha [11] [%]	pest or weed control at 140 g/ha [12] [%]	pest or weed control at 140 g/ha [13] [%]	pest or weed control at 140 g/ha [14] [%]	pest or weed control at 140 g/ha [15] [%]	other results
COC(=O)c1nc(-c2ccc(C#N)cc2OC)c(F)cc1Cl [F351, Methyl 3-chloro-6-(4-cyano-2-methoxyphenyl)-5-fluoropicolinate]	30 to 44	95 to 100	30 to 44	0 to 29	75 to 84	75 to 84	0 to 29	0 to 29	0 to 29	0 to 29	30 to 44	75 to 84	60 to 74	0 to 29	0 to 29	
C=C(C)COC(=O)c1nc(-c2ccc(C(F)(F)F)cc2Cl)ccc1Cl [F381, 2-Methylallyl 3-chloro-6-(2-chloro-4-(trifluoromethyl)phenyl)picolinate]	85 to 94	95 to 100	95 to 100	0 to 29	85 to 94	85 to 94	0 to 29	60 to 74	45 to 59	85 to 94	85 to 94	95 to 100	85 to 94	45 to 59	0 to 29	
COc1c(Cl)cc(Cl)c(-c2nc(C(=O)OCc3ccccc3)c(Cl)cc2F)c1F [F300, Benzyl 3-chloro-6-(4,6-dichloro-2-fluoro-3-methoxyphenyl)-5-fluoropicolinate]	0 to 29	60 to 74	30 to 44	0 to 29	0 to 29	0 to 29	0 to 29	0 to 29	0 to 29	45 to 59	0 to 29	75 to 84	0 to 29	0 to 29	0 to 29	
COC(=O)c1nc(-c2ccc(Cl)c([N+](=O)[O-])c2)ccc1Cl [F83, Methyl 3-chloro-6-(4-chloro-3-nitrophenyl) picolinate]																Visual Growth Reduction (%) 14 Days After Application, ALOMY (ALOMY: blackgrass (Alopecurus myosuroides), 14 days after application): G (0-29); Visual Growth Reduction (%) 14 Days After Application, AMARE (AMARE: redroot pigweed (Amaranthus retroflexus), 14 days after application): G (0-29); Visual Growth Reduction (%) 14 Days After Application, AVEFA (AVEFA: wild oat (Avena fatua), 14 days after application): G (0-29); Visual Growth Reduction (%) 14 Days After Application, CHEAL (CHEAL: lambsquarters (Chenopodium album), 14 days after application): G (0-29); Visual Growth Reduction (%) 14 Days After Application, CIRAR (CIRAR: canada thistle (Cirsium arvense), 14 days after application): G (0-29); Visual Growth Reduction (%) 14 Days After Application, CYPES (CYPES: yellow nutsedge (Cyperus esculentus), 14 days after application): G (0-29); Visual Growth Reduction (%) 14 Days After Application, DIGSA (DIGSA: crabgrass (Digitaria sanguinalis), 14 days after application): G (0-29); Visual Growth Reduction (%) 14 Days After Application, ECHCG (ECHCG: barnyardgrass (Echinochloa crus-galli), 14 days after application): G (0-29); Visual Growth Reduction (%) 14 Days After Application, IPOHE (IPOHE: ivy-leaf morning glory (Ipomoea hederacea), 14 days after application): G (0-29); Visual Growth Reduction (%) 14 Days After Application, KCHSC (KCHSC: kochia (Bassia scoparia), 14 days after application): G (0-29); Visual Growth Reduction (%) 14 Days After Application, ORYSA (ORYSA: rice (Oryza sativa), 14 days after application): G (0-29); Visual Growth Reduction (%) 14 Days After Application, SETFA (SETFA: giant foxtail (Setaria faberi), 14 days after application): G (0-29); Visual Growth Reduction (%) 14 Days After Application, SORVU (SORVU: johnsongrass (Sorghum vulgare), 14 days after application): G (0-29); Visual Growth Reduction (%) 14 Days After Application, STEME (STEME: common chickweed (Stellaria media), 14 days after application): G (0-29); Visual Growth Reduction (%) 14 Days After Application, TRZAS (TRZAS: wheat, spring (Triticum aestivum), 14 days after application): G (0-29)
COC(=O)c1nc(-c2cc3c(cc2Cl)OC(F)(F)O3)ncc1Cl [F232, Methyl 5-chloro-2-(6-chloro-2,2-difluorobenzo[d][1,3]dioxol-5-yl)pyrimidine-4-carboxylate]	75 to 84	95 to 100	45 to 59	0 to 29	75 to 84	85 to 94	45 to 59	45 to 59	0 to 29	85 to 94	95 to 100	95 to 100	60 to 74	0 to 29	0 to 29	
COC(=O)c1nc(-c2ccc(C3(C#N)CC3)cc2Cl)ccc1Cl [F236, Methyl 3-chloro-6-(2-chloro-4-(1-cyanocyclopropyl)phenyl)picolinate]	0 to 29	95 to 100	75 to 84	0 to 29	75 to 84	75 to 84	45 to 59	0 to 29	0 to 29	85 to 94	75 to 84	85 to 94	30 to 44	0 to 29	0 to 29	
COc1cc(C(F)(F)F)ccc1-c1nc(C(=O)O)c(Cl)cc1F [F190, 3-Chloro-5-fluoro-6-(2-methoxy-4-(trifluoromethyl)phenyl) picolinic acid]	95 to 100	95 to 100	75 to 84	30 to 44	95 to 100	95 to 100	0 to 29	60 to 74								pest or weed control at 140 g/ha [16]: 0 to 29%; pest or weed control at 140 g/ha [17]: 95 to 100%; pest or weed control at 140 g/ha [18]: 60 to 74%; pest or weed control at 140 g/ha [19]: 95 to 100%; pest or weed control at 140 g/ha [20]: 85 to 94%; pest or weed control at 140 g/ha [21]: 0 to 29%; pest or weed control at 140 g/ha [22]: 85 to 94%
COC(=O)c1nc(-c2ccc(C(F)(F)C(N)=O)cc2Cl)ccc1Cl [F176, Methyl 6-(4-(2-amino-1,1-difluoro-2-oxoethyl)-2-chlorophenyl)-3-chloropicolinate]	0 to 29	0 to 29	0 to 29	0 to 29	0 to 29	0 to 29	0 to 29	0 to 29								pest or weed control at 140 g/ha [16]: 0 to 29%; pest or weed control at 140 g/ha [17]: 0 to 29%; pest or weed control at 140 g/ha [18]: 0 to 29%; pest or weed control at 140 g/ha [19]: 0 to 29%; pest or weed control at 140 g/ha [20]: 0 to 29%; pest or weed control at 140 g/ha [21]: 0 to 29%; pest or weed control at 140 g/ha [22]: 0 to 29%
